Usually IC50 stands for the concentration that gives 50% inhibition.

This is an account of results in patent publication US7166744B2, “Retinoid derivatives and methods for producing said compounds and anti-cancer pharmaceutical composition comprising said compounds” (Chebigen Co., Ltd., priority 2001, dated 2007).

The subject of the first test is colon cancer cells. Put plainly: MTT proliferation assay, colon cancer cells (Table 1). The format is cell-based. As to conditions: 48 hours, concentration required for 50% growth inhibition, read-out: IC50, activities of various retinoid derivatives in colon cancer cells. The method, then: The effects of test compounds on proliferation of various cancer cells was examined by 3-(4,5-dimethylthiazol-2-yl)-2,5-diphenyltetrazolium bromide (MTT, Sigma) assay in a dose dependent manner. In the MTT assay, colon, liver, cervix, ovary, and breast cancer cell lines were treated with test compounds at various concentrations. Living cancer cells reduce MTT to dark blue MTT formazan that would be measured by absorbance.
Colon cancer cells, HCT116, DLD-1 and HT29, cervix cancer cells, HeLa and CaSki, ovary cancer cells, SKOV-3, 2774 and OVCAR-3, liver cancer cells, SK-Hep-1, PLCPRF5 and HepG2, and breast cancer cells, ZR75-1 and MDA-MB 231 were seeded at an initial density of 3000 cells per well in 96-well plates. After attachment of cells to the walls of the wells, the medium containing fresh retinoid was treated with various concentrations (0.5 μM, 1 μM, 2.5 μM, 5 μM, 10 μM) for 48 hours. 50 μl of MTT solution (2 mg/ml in PBS) was added to cell culture media. The reaction micture was incubated at 37° C. in a 5% CO2 atmosphere for 4 hours. The supernatant was removed and 150 μl of DMSO was added. The optical density was measured spectrophotometrically at 550 nm. […] For other retinoid derivatives according to the present invention, absorbances were measured by this procedure and IC50 values, concentrations required for 50% growth inhibition, were determined.
(Tetrazolium assays rely on reduction of a dye to a coloured formazan, in cell work by metabolically active cells.)
Take “2-[(2E,4E,6E,8E)-3,7-Dimethyl-9-(2,6,6-trimethylcyclohex-1-enyl)-nona-2,4,6,8-tetraenoylamino]-5-hydroxyphenyl(dimethylamino)acetate [KCBG23]”: the IC50 was found to be 3.5 µM.

On to `CC1=C(/C=C/C(C)=C/C=C/C(C)=C/C(=O)Nc2ccc(OC(=O)CCC(=O)O)cc2)C(C)(C)CCC1` [KCBG50, 4-(4-[(2E,4E,6E,8E)-3,7-dimethyl-9-(2,6,6-trimethyl-1-cyclohexenyl)-2,4,6,8-nonatetraenoyl]aminophenoxy)-4-oxobutanoic acid], for which the concentration for half-maximal inhibition (IC50) is 5.5 µM.

In the case of `CC(=O)C(=O)Oc1cc(O)ccc1NC(=O)/C=C(C)/C=C/C=C(C)/C=C/C1=C(C)CCCC1(C)C` [KCBG22, 2-[(2E,4E,6E,8E)-3,7-dimethyl-9-(2,6,6-trimethylcyclohex-1-enyl)-nona-2,4,6,8-tetraenoylamino]-5-hydroxyphenyl-2-oxopropionate], the IC50 worked out at 6 µM.

On to `CCCCS(=O)(=O)Oc1ccc(NC(=O)/C=C(C)/C=C/C=C(C)/C=C/C2=C(C)CCCC2(C)C)cc1` [KCBG43, 4-[(2E,4E,6E,8E)-3,7-dimethyl-9-(2,6,6-trimethyl-1-cyclohexenyl)-2,4,6,8-nonatetraenoyl]aminophenyl-1-butanesulfonate], for which the IC50 worked out at 4 µM. `CC1=C(/C=C/C(C)=C/C=C/C(C)=C/C(=O)Nc2ccc(O)cc2OC(=O)CC(C)O)C(C)(C)CCC1` (stereo not drawn) [KCBG39, 2-[(2E,4E,6E,8E)-3,7-dimethyl-9-(2,6,6-trimethylcyclohex-1-enyl)-nona-2,4,6,8-tetraenoylamino]-5-hydroxyphenyl-3-hydroxybutanoate]: the IC50 turned out to be 3 µM. In the case of `CCC(=O)C(=O)Oc1cc(O)ccc1NC(=O)/C=C(C)/C=C/C=C(C)/C=C/C1=C(C)CCCC1(C)C` [KCBG38, 2-[(2E,4E,6E,8E)-3,7-dimethyl-9-(2,6,6-trimethylcyclohex-1-enyl)-nona-2,4,6,8-tetraenoylamino]-5-hydroxyphenyl 2-oxobutanoate], the IC50 is 2 µM. Still for that read-out and setting: the value for `CCCC(=O)Nc1cc(NC(=O)/C=C(C)/C=C/C=C(C)/C=C/C2=C(C)CCCC2(C)C)ccc1OC(=O)CCC` [KCBG42, 2-Butyrylamino-4-(2E,4E,6E,8E)-[3,7-dimethyl-9-(2,6,6-trimethylcyclohex-1-enyl)-nona-2,4,6,8-tetraenoylamino]-phenylbutanoate] was 7 µM; that for `CCC(=O)Oc1cc(O)ccc1NC(=O)/C=C(C)/C=C/C=C(C)/C=C/C1=C(C)CCCC1(C)C` [KCBG15, 2-[(2E,4E,6E,8E)-3,7-dimethyl-9-(2,6,6-trimethylcyclohex-1-enyl)-nona-2,4,6,8-tetraenoylamino]-5-hydroxyphenylpropionate] was 8 µM; that for `CCC(=O)C(=O)Oc1ccc(NC(=O)/C=C(C)/C=C/C=C(C)/C=C/C2=C(C)CCCC2(C)C)cc1` [KCBG47, 4-[(2E,4E,6E,8E)-3,7-dimethyl-9-(2,6,6-trimethyl-1-cyclohexenyl)-2,4,6,8-nonatetraenoyl]aminophenyl-2-oxobutanoate] was 1.8 µM.

For the compound “4-(4-[(2E,4E,6E,8E)-3,7-dimethyl-9-(2,6,6-trimethyl-1-cyclohexenyl)-2,4,6,8-nonatetraenoyl]aminophenoxy)-oxo-heptanedioic acid [KCBG53]”, the IC50 was found to be 6.5 µM. As to `CC1=C(/C=C/C(C)=C/C=C/C(C)=C/C(=O)Nc2ccc(O)cc2O)C(C)(C)CCC1` [KCBG08, (2E,4E,6E,8E)-[3,7-dimethyl-9-(2,6,6-trimethylcyclohex-1-enyl)-nona-2,4,6,8-tetraenoyl]-(2,4-dihydroxy)phenylamide], the IC50 was more than 100 µM. Consider `CCCC(=O)Oc1ccc(NC(=O)C=C(C)C=CC=C(C)C=CC2=C(C)CCCC2(C)C)c(OC(=O)CCC)c1` [KCBG09, 5-Butyryloxy-2-[3,7-dimethyl-9-(2,6,6-trimethylcyclohex-1-enyl)-nona-2,4,6,8-tetraenoylamino]-phenylbutanoate], for which the IC50 is 10 to 20 µM. For “4-(4-[(2E,4E,6E,8E)-3,7-dimethyl-9-(2,6,6-trimethyl-1-cyclohexenyl)-2,4,6,8-nonatetraenoyl]aminophenoxy)-oxo-hexanedioic acid [KCBG51]”, the IC50 is 4.5 µM.

Consider `CCCC(=O)Oc1cc(NC(=O)/C=C(C)/C=C/C=C(C)/C=C/C2=C(C)CCCC2(C)C)ccc1O` [KCBG35, 5-(2E,4E,6E,8E)-[3,7-dimethyl-9-(2,6,6-trimethylcyclohex-1-enyl)-nona-2,4,6,8-tetraenoylamino]-2-hydroxyphenylbutanoate], for which the IC50 came out at 2 µM. On the same count and under the same terms, for `CC(=O)NC(CCC(N)=O)C(=O)Oc1ccc(NC(=O)/C=C(C)/C=C/C=C(C)/C=C/C2=C(C)CCCC2(C)C)cc1` (stereo not drawn) [KCBG52, 4-[(2E,4E,6E,8E)-3,7-dimethyl-9-(2,6,6-trimethylcyclohex-1-enyl)-nona-2,4,6,8-tetraenoylamino]phenyl-2-acetylamino-4-carbamoylbutanoate] the value was 7 µM; for “4-(4-[(2E,4E,6E,8E)-3,7-dimethyl-9-(2,6,6-trimethyl-1-cyclohexenyl)-2,4,6,8-nonatetraenoyl]aminophenoxy)-4-oxobutanoic acid [KCBG32]”, 5 µM; for `CC1=C(/C=C/C(C)=C/C=C/C(C)=C/C(=O)Nc2ccc(OC(=O)CCCCCCC(=O)O)cc2)C(C)(C)CCC1` [KCBG54, 4-(4-[(2E,4E,6E,8E)-3,7-dimethyl-9-(2,6,6-trimethyl-1-cyclohexenyl)-2,4,6,8-nonatetraenoyl]aminophenoxy)-oxo-octanedionic acid], 3.5 µM. Still for that read-out and setting: the value for `CCCC(=O)Nc1ccc(NC(=O)/C=C(C)/C=C/C=C(C)/C=C/C2=C(C)CCCC2(C)C)cc1` [KCBG40, (2E,4E,6E,8E)-[3,7-dimethyl-9-(2,6,6-trimethylcyclohex-1-enyl)-nona-2,4,6,8-tetraenoylamino]-(4-butyrylamino)phenylamide] was 0.6 µM; that for `CC(=O)C(=O)Oc1ccc(NC(=O)/C=C(C)/C=C/C=C(C)/C=C/C2=C(C)CCCC2(C)C)cc1` [KCBG45, 4-[(2E,4E,6E,8E)-3,7-dimethyl-9-(2,6,6-trimethyl-1-cyclohexenyl)-2,4,6,8-nonatetraenoyl]aminophenyl-2-oxopropanoate] was 7 µM. On the same count and under the same terms, for `CCCC(=O)Oc1ccc(NC(=O)/C=C(C)/C=C/C=C(C)/C=C/C2=C(C)CCCC2(C)C)cc1OC(=O)CCC` [KCBG34, 2-Butyryloxy-5-(2E,4E,6E,8E)-[3,7-dimethyl-9-(2,6,6-trimethylcyclohex-1-enyl)-nona-2,4,6,8-tetraenoylamino]phenylbutanoate] the value was 3 µM.

The test system of a further test is MMP-1 mRNA expression. Kind of test: RT-PCR of MMP-1 mRNA in HCT116. Format: cell-based. As to conditions: HCT116, 1 μM, 36 hours. The method, then: (§1) Previously, it was shown that the synthetic retinoid derivatives inhibit the transcriptional activity of AP-1. Also, it is well known that MMP (matrix metalloproteinase), a main target gene of AP-1 is involved in metastasis of cancer cells. Therefore, the inhibitive effects of the retinoid derivatives on metastasis of cancer was examined by RT-PCR analysis. Colon cancer HCT116 cells were treated with 1 μM retinoid for 36 hours. RNA was isolated from the cells and mRNA expression levels of MMP-1, -2 and -3 were analyzed by RT-PCR. […] As the control, GAPDH was used and it was confirmed that its expression was not affected by retinoid. Meanwhile, the expression level of MMP-3 was affected weakly by KCBG40, intermediately by KCBG41 but strongly by KCBG10 (FIG. 9).
(§2) RNA was isolated from the cells and mRNA expression levels of MMP-1, -2 and -3 were analyzed by RT-PCR (FIG. 14).
Turning to `CCCC(=O)Nc1ccc(NC(=O)/C=C(C)/C=C/C=C(C)/C=C/C2=C(C)CCCC2(C)C)cc1` [KCBG40, (2E,4E,6E,8E)-[3,7-dimethyl-9-(2,6,6-trimethylcyclohex-1-enyl)-nona-2,4,6,8-tetraenoylamino]-(4-butyrylamino)phenylamide], the “inhibition of MMP-1 mRNA expression” value is reported as “affected very little”.

In the next test the test system is HCT116 colon cancer cells. Put plainly: DAPI staining of nuclei, HCT116. The format is cell-based. As to conditions: HCT116, 5 μM, 36 h. As for the experimental part: By DAPI (4,6-diamidino-2-phenylindole) staining assay for staining DNA in cellular nucleus, nuclear condensation and fragmentation, characteristic features of apoptosis, were observed. […] In FIG. 4, the control represents non-treated cells. The sub-G1 DNA contents of colon cancer HTC116 cells and breast cancer MCF-7 cells were measured by FACS (Fluorescence-Activated Cell Sorter) assay to quantify the apoptosis (FIG. 5). Finally, in order to further characterize the apoptosis observed in retinoid derivative-treated cells, the cleavage of apoptosis-related proteins, including PARP (poly(ADP-ribose)polymerase) and CPP32 (caspase-3) by Western blotting. […] PARP cleavage occurred in a time-dependent manner, in parallel with the induction of apoptosis (FIG. 6B). C in FIG. 6 represents the result of Western blotting of non-treated cells.
Meanwhile, HPR which is a precursor during the synthesis process of KCBG60 is known to induce apoptosis. Considering that the cells aggregated into small spherical mass upon treatment with KCBG60, KCBG60 is expected to induce apoptosis. In order to confirm apoptosis induced by KCBG60 once again, KCBG60-treated HCT116 cells were stained with DAPI and observed for nuclear condensation, an indicative of apoptosis (FIG. 12).
Consider `CCCC(=O)Nc1ccc(NC(=O)/C=C(C)/C=C/C=C(C)/C=C/C2=C(C)CCCC2(C)C)cc1` [KCBG40, (2E,4E,6E,8E)-[3,7-dimethyl-9-(2,6,6-trimethylcyclohex-1-enyl)-nona-2,4,6,8-tetraenoylamino]-(4-butyrylamino)phenylamide], for which the “nuclear condensation and fragmentation (DAPI)” value is “largely showed nuclear fragmentation”.

For another test, the system named is MMP-3 mRNA expression. Put plainly: RT-PCR of MMP-3 mRNA in HCT116. The note with it: HCT116, 1 μM, 36 hours. The format is cell-based. The method, then:
as §1
Regarding `CCCC(=O)Nc1ccc(NC(=O)/C=C(C)/C=C/C=C(C)/C=C/C2=C(C)CCCC2(C)C)cc1` [KCBG40, (2E,4E,6E,8E)-[3,7-dimethyl-9-(2,6,6-trimethylcyclohex-1-enyl)-nona-2,4,6,8-tetraenoylamino]-(4-butyrylamino)phenylamide], the “effect on MMP-3 mRNA expression level” value is “weakly”.

Another test relates to MMP-2 mRNA expression. Put plainly: RT-PCR of MMP-2 mRNA in HCT116. Format: cell-based. The note with it: HCT116, 1 μM, 36 hours. The method, then:
as §1, §2
Regarding `CCCC(=O)Nc1ccc(NC(=O)/C=C(C)/C=C/C=C(C)/C=C/C2=C(C)CCCC2(C)C)cc1` [KCBG40, (2E,4E,6E,8E)-[3,7-dimethyl-9-(2,6,6-trimethylcyclohex-1-enyl)-nona-2,4,6,8-tetraenoylamino]-(4-butyrylamino)phenylamide], the “inhibition of MMP-2 mRNA expression” value is “affected very little”.
